Measurements published in US8530447B2, “Dietary fiber formulation and method of administration” (Nestec S.A., priority 2005, dated 2013).

System: human fecal bacteria
Experiment: Measure of prebiotic effect (MPE), stirred pH-controlled batch culture fermentations
Assay type: cell-based
Description: Quantitative in vitro methods are known for measuring the prebiotic effect of a fiber. The measurable effect a fiber has on the growth of major bacterial species in the human gut, bifidobacteria and lactobacilli in particular, is the measure of the prebiotic effect (MPE). MPE has three components:
1. the rate fiber is fermented;
2. the changes in bacterial populations; and
3. the production of SCFA.
The rate of fiber fermentation is determined by the change in the concentration of fiber over time. Thus, the quicker the fiber concentration decreases, the faster the rate of fermentation by bacteria. Changes in bacterial populations are measured by the “prebiotic index,” which considers increases in the growth rate of bifidobacteria, lactobacilli, and eubacteria as positive effects and increases in bacteriodes, clostridia, Escherichia coli, and sulphate-reducing bacteria as negative effects. Different fibers support the growth of distinct bacteria and therefore yield varying patterns and/or amounts of SCFA. However, the prebiotic effect is usually associated with lactic acid-producing bacteria, bifidobacteria and lactobacilli being principle lactic acid producers. Therefore, the ratio of lactic acid production relative to the total SCFA production provides a qualitative as well as quantitative assessment of the fibers being examined. The MPE provides a quantitative analysis of the prebiotic potential of a fiber and provides further support for the benefits of specific fibers. Therefore, the MPE is a useful tool in identifying the types and specific amounts of fiber that promote optimal digestive health and prevent or treat intestinal diseases.
Each value is based on stirred, pH-controlled batch culture fermentations using 0.25%, 0.5%, and 1.0% (w/v) substrates in the presence of human fecal bacteria.

**Q.** Which results are given for `OC[C@H]1O[C@@](CO)(O[C@H]2O[C@H](CO)[C@@H](O)[C@H](O)[C@H]2O)[C@@H](O)[C@@H]1O` [Sucrose]?
**A.** MPE (0.25% (w/v) substrate): −0.3; MPE (0.5% (w/v) substrate): −0.3; MPE (1% (w/v) substrate): −0.6
